Activity calls are given as the source filed them. The rule behind the calls is not given here.
How the values were obtained:
U-937 [1] = assay: Antiproliferative activity against human U937 cells after 72 hrs by WST-8 assay; assay type: functional, cell-based; settings: U-937, 72 h
U-937 [2] = assay: Antiproliferative activity against human U937 cells after 48 hrs by WST-8 assay; assay type: functional, cell-based; settings: U-937, 48 h
U-937 [3] = assay: Antiproliferative activity against human U937 cells after 24 hrs by WST-8 assay; assay type: functional, cell-based; settings: U-937, 24 h
HT-1080 [4] = assay: Antiproliferative activity against human HT1080 cells at 3 uM after 72 hrs by calcein-AM assay; assay type: functional; settings: HT-1080, 72 h
HT-1080 [5] = assay: Antiproliferative activity against human HT1080 cells at 10 uM after 48 hrs by calcein-AM assay; assay type: functional; settings: HT-1080, 48 h
HT-1080 [6] = assay: Antiproliferative activity against human HT1080 cells at 30 uM after 72 hrs by MTT assay; assay type: functional; settings: HT-1080, 72 h
HT-1080 [7] = assay: Antiproliferative activity against human HT1080 cells at 1 uM after 72 hrs by MTT assay; assay type: functional; settings: HT-1080, 72 h
HT-1080 [8] = assay: Antiproliferative activity against human HT1080 cells at 10 uM after 72 hrs by calcein-AM assay; assay type: functional; settings: HT-1080, 72 h
HT-1080 [9] = assay: Antiproliferative activity against human HT1080 cells at 1 uM after 24 hrs by MTT assay; assay type: functional; settings: HT-1080, 24 h
HT-1080 [10] = assay: Antiproliferative activity against human HT1080 cells at 10 uM after 48 hrs by MTT assay; assay type: functional; settings: HT-1080, 48 h
HT-1080 [11] = assay: Antiproliferative activity against human HT1080 cells at 30 uM after 48 hrs by calcein-AM assay; assay type: functional; settings: HT-1080, 48 h
HT-1080 [12] = assay: Inhibition of invasion of human HT1080 cells at 3 uM after 24 hrs; assay type: functional; settings: HT-1080, 24 h
HT-1080 [13] = assay: Antiproliferative activity against human HT1080 cells at 3 uM after 48 hrs by MTT assay; assay type: functional; settings: HT-1080, 48 h
HT-1080 [14] = assay: Antiproliferative activity against human HT1080 cells at 10 uM after 24 hrs by MTT assay; assay type: functional; settings: HT-1080, 24 h
HT-1080 [15] = assay: Inhibition of invasion of human HT1080 cells at 10 uM after 24 hrs; assay type: functional; settings: HT-1080, 24 h
HT-1080 [16] = assay: Antiproliferative activity against human HT1080 cells at 3 uM after 48 hrs by calcein-AM assay; assay type: functional; settings: HT-1080, 48 h
HT-1080 [17] = assay: Inhibition of invasion of human HT1080 cells at 1 uM after 24 hrs; assay type: functional; settings: HT-1080, 24 h
HT-1080 [18] = assay: Antiproliferative activity against human HT1080 cells at 3 uM after 72 hrs by MTT assay; assay type: functional; settings: HT-1080, 72 h
HT-1080 [19] = assay: Antiproliferative activity against human HT1080 cells at 3 uM after 24 hrs by calcein-AM assay; assay type: functional; settings: HT-1080, 24 h
HT-1080 [20] = assay: Antiproliferative activity against human HT1080 cells at 1 uM after 72 hrs by calcein-AM assay; assay type: functional; settings: HT-1080, 72 h
HT-1080 [21] = assay: Antiproliferative activity against human HT1080 cells at 1 uM after 48 hrs by calcein-AM assay; assay type: functional; settings: HT-1080, 48 h
HT-1080 [22] = assay: Antiproliferative activity against human HT1080 cells at 1 uM after 24 hrs by calcein-AM assay; assay type: functional; settings: HT-1080, 24 h
HT-1080 [23] = assay: Inhibition of invasion of human HT1080 cells at 30 uM after 24 hrs; assay type: functional; settings: HT-1080, 24 h
HT-1080 [24] = assay: Antiproliferative activity against human HT1080 cells at 10 uM after 24 hrs by calcein-AM assay; assay type: functional; settings: HT-1080, 24 h
HT-1080 [25] = assay: Antiproliferative activity against human HT1080 cells at 30 uM after 72 hrs by calcein-AM assay; assay type: functional; settings: HT-1080, 72 h
HT-1080 [26] = assay: Antiproliferative activity against human HT1080 cells at 30 uM after 24 hrs by calcein-AM assay; assay type: functional; settings: HT-1080, 24 h
HT-1080 [27] = assay: Antiproliferative activity against human HT1080 cells at 1 uM after 48 hrs by MTT assay; assay type: functional; settings: HT-1080, 48 h
HT-1080 [28] = assay: Antiproliferative activity against human HT1080 cells at 10 uM after 72 hrs by MTT assay; assay type: functional; settings: HT-1080, 72 h
HT-1080 [29] = assay: Antiproliferative activity against human HT1080 cells at 30 uM after 48 hrs by MTT assay; assay type: functional; settings: HT-1080, 48 h
HT-1080 [30] = assay: Antiproliferative activity against human HT1080 cells at 3 uM after 24 hrs by MTT assay; assay type: functional; settings: HT-1080, 24 h
HT-1080 [31] = assay: Antiproliferative activity against human HT1080 cells at 30 uM after 24 hrs by MTT assay; assay type: functional; settings: HT-1080, 24 h
HT-1080 [32] = assay: Inhibition of proMMP9 production in human HT1080 cells by gelatin zymography analysis; assay type: functional, cell-based
HT-1080 [33] = assay: Inhibition of proMMP2 production in human HT1080 cells by gelatin zymography analysis; assay type: functional, cell-based

## O=c1cc(-c2ccc(O)c(O)c2)oc2cc(O)cc(O)c12 [LUTEOLIN]
U-937 [1]
  IC50: 20 µM
U-937 [2]
  IC50: 28 µM
U-937 [3]
  IC50: 36 µM

## CC[C@@]1(O)C(=O)OCc2c1cc1n(c2=O)Cc2cc3ccccc3nc2-1 [CAMPTOTHECIN]
U-937 [1]
  IC50: 0.015 µM
U-937 [2]
  IC50: 0.032 µM
U-937 [3]
  IC50: 0.68 µM

## COc1ccc([C@@H]2CCc3c(OC)cc(OC)cc3O2)cc1
U-937 [1]
  IC50: 18 µM
U-937 [2]
  IC50: 21 µM
U-937 [3]
  IC50: 29 µM

## COc1ccc(-c2coc3cc(O)ccc3c2=O)cc1 [FORMONONETIN]
U-937 [1]
  IC50: 45 µM
U-937 [2]
  IC50: 44 µM
U-937 [3]
  IC50: 50 µM

## COc1cc(OC)c2c(c1)O[C@H](c1ccc(O)cc1)CC2
U-937 [1]
  IC50: 10 µM
U-937 [2]
  IC50: 40 µM
U-937 [3]
  IC50: 39 µM

## O=C1C=C2OC[C@H]3c4cc5c(cc4O[C@H]3[C@@]2(O)CC1)OCO5
U-937 [1]
  IC50: > 100 µM
U-937 [2]
  IC50: > 100 µM
U-937 [3]
  IC50: > 100 µM

## CC(=O)O[C@H]1C(=O)[C@@]2(C)[C@H]([C@H](OC(=O)c3ccccc3)[C@]3(O)C[C@H](OC(=O)[C@H](O)[C@@H](NC(=O)c4ccccc4)c4ccccc4)C(C)=C1C3(C)C)[C@]1(OC(C)=O)CO[C@@H]1C[C@@H]2O [PACLITAXEL]
HT-1080 [4]
  inhibition at 3 µM: 87%
HT-1080 [5]
  inhibition at 10 µM: 70.9%
HT-1080 [6]
  inhibition at 30 µM: 79.9%
HT-1080 [7]
  inhibition at 1 µM: 65.6%
HT-1080 [8]
  inhibition at 10 µM: 87.6%
HT-1080 [9]
  inhibition at 1 µM: 4.7%
HT-1080 [10]
  inhibition at 10 µM: 50%
HT-1080 [11]
  inhibition at 30 µM: 70%
HT-1080 [12]
  inhibition at 3 µM: 79.8%
HT-1080 [13]
  inhibition at 3 µM: 48.7%
HT-1080 [14]
  inhibition at 10 µM: 12.2%
HT-1080 [15]
  inhibition at 10 µM: 87.8%
HT-1080 [16]
  inhibition at 3 µM: 64.4%
HT-1080 [17]
  inhibition at 1 µM: 50.5%
HT-1080 [18]
  inhibition at 3 µM: 79.8%
HT-1080 [19]
  inhibition at 3 µM: 10.8%
HT-1080 [20]
  inhibition at 1 µM: 59.8%
HT-1080 [21]
  inhibition at 1 µM: 46.2%
HT-1080 [22]
  inhibition at 1 µM: -0.5%
HT-1080 [23]
  inhibition at 30 µM: 89.2%
HT-1080 [24]
  inhibition at 10 µM: 12.4%
HT-1080 [25]
  inhibition at 30 µM: 87.7%
HT-1080 [26]
  inhibition at 30 µM: 10.3%
HT-1080 [27]
  inhibition at 1 µM: 43.7%
HT-1080 [28]
  inhibition at 10 µM: 81.4%
HT-1080 [29]
  inhibition at 30 µM: 50.3%
HT-1080 [30]
  inhibition at 3 µM: 12.6%
HT-1080 [31]
  inhibition at 30 µM: 10.3%

## COc1cc([C@H]2Oc3cc(O)ccc3C(=O)[C@@H]2O)ccc1O [ERYCIBENIN D]
U-937 [1]
  IC50: > 100 µM
U-937 [2]
  IC50: > 100 µM
U-937 [3]
  IC50: > 100 µM

## COc1ccc([C@@H]2CCc3c(OC)cc(OC)cc3O2)c(OC)c1 [ERYCIBENIN F]
U-937 [1]
  IC50: > 100 µM
U-937 [2]
  IC50: > 100 µM
U-937 [3]
  IC50: > 100 µM

## COc1cc(O)cc2c1C(=O)O[C@@H](C)CCCCCCC2 [LASIODIPLODIN]
U-937 [1]
  IC50: 20 µM
U-937 [2]
  IC50: 28 µM
U-937 [3]
  IC50: 36 µM

## COc1ccc2c(c1)O[C@H]1c3ccc(OC)cc3OC[C@@H]21 [HOMOPTEROCARPIN]
U-937 [1]
  IC50: > 100 µM
U-937 [2]
  IC50: > 100 µM
U-937 [3]
  IC50: > 100 µM

## COc1ccc([C@@H]2CCc3c(OC)cc(OC)cc3O2)c(O)c1 [ERYCEBENIN E]
U-937 [1]
  IC50: 2.9 µM
U-937 [2]
  IC50: 4.3 µM
U-937 [3]
  IC50: 37 µM

## C=C(C)[C@H]1Cc2c(ccc3c2O[C@@H]2COc4cc(OC)c(OC)cc4[C@]2(O)C3=O)O1 [ROTENOLONE]
HT-1080 [4]
  inhibition at 3 µM: 97.1%
HT-1080 [5]
  inhibition at 10 µM: 47.6%
HT-1080 [6]
  inhibition at 30 µM: 98.5%
HT-1080 [7]
  inhibition at 1 µM: 98.3%
HT-1080 [8]
  inhibition at 10 µM: 94.9%
HT-1080 [9]
  inhibition at 1 µM: -2%
HT-1080 [10]
  inhibition at 10 µM: 96.4%
HT-1080 [32]
  Activity: Active
HT-1080 [11]
  inhibition at 30 µM: 53.6%
HT-1080 [12]
  inhibition at 3 µM: 30.6%
HT-1080 [13]
  inhibition at 3 µM: 96.9%
HT-1080 [14]
  inhibition at 10 µM: 2.4%
HT-1080 [15]
  inhibition at 10 µM: 64.9%
U-937 [1]
  IC50: 0.09 µM
U-937 [2]
  IC50: 0.07 µM
HT-1080 [16]
  inhibition at 3 µM: 50.6%
HT-1080 [33]
  Activity: Active
HT-1080 [17]
  inhibition at 1 µM: 3.3%
HT-1080 [18]
  inhibition at 3 µM: 98.7%
HT-1080 [19]
  inhibition at 3 µM: 21.8%
HT-1080 [20]
  inhibition at 1 µM: 97.3%
HT-1080 [21]
  inhibition at 1 µM: 52.2%
HT-1080 [22]
  inhibition at 1 µM: 17.2%
HT-1080 [23]
  inhibition at 30 µM: 54.6%
HT-1080 [24]
  inhibition at 10 µM: 24.4%
HT-1080 [25]
  inhibition at 30 µM: 95%
HT-1080 [26]
  inhibition at 30 µM: 29.2%
HT-1080 [27]
  inhibition at 1 µM: 95.8%
HT-1080 [28]
  inhibition at 10 µM: 98.3%
HT-1080 [29]
  inhibition at 30 µM: 96%
HT-1080 [30]
  inhibition at 3 µM: 0.8%
U-937 [3]
  IC50: 3.6 µM
HT-1080 [31]
  inhibition at 30 µM: 5.5%

## Oc1ccc2c(c1)OC[C@H]1c3cc4c(cc3O[C@@H]21)OCO4 [MAACKIAIN]
U-937 [1]
  IC50: > 100 µM
U-937 [2]
  IC50: > 100 µM
U-937 [3]
  IC50: > 100 µM

## COc1cc(-c2coc3cc(O)cc(O)c3c2=O)ccc1O [3'-O-METHYLOROBOL]
U-937 [1]
  IC50: 74 µM
U-937 [2]
  IC50: 85 µM
U-937 [3]
  IC50: 68 µM
